Reference: article PMC3671111, “A Phase I, open-label, randomized, crossover study in three parallel groups to evaluate the effect of Rifampicin, Ketoconazole, and Omeprazole on the pharmacokinetics of THC/CBD oromucosal spray in healthy volunteers” (SpringerPlus, 2013)
Marks after values point to notes of the source that are not given here.

Assays:
[1] = Phase I drug-drug interaction PK, Group 1: THC/CBD spray alone or with rifampicin, plasma by GC-MS; conditions: for AUC(0-inf) / AUC(0-t) / Cmax / Kel / t½ / Tmax: n = 12, plasma; for AUC(0-inf) / AUC(0-t) / Cmax / Kel / t½: mean (SD); for Tmax: median (range)
Method: (§1) Subjects received rifampicin on Days 1-9. […] Subjects received ketoconazole on Days 1-4.
(§2) Blood samples were collected at specified times and stored on ice (except rifampicin PK samples which were stored in iced water) prior to processing and storage. Plasma samples were separated by centrifugation (approximately 2500 rpm × 15 minutes at 4°C). Samples were stored in 4 mL amber glass screw top glass vials with PTFE lined screw caps labelled with Guys Drug Research (Quintiles Limited) labels. The aliquots were stored in clearly labelled containers in a freezer set at or below -20°C, until shipped for assay. Samples were shipped on dry ice at the appropriate time-points.
(§3) The assay validation was undertaken by Advanced Bioanalytical Service Laboratories (London, UK), who developed the technique after reviewing the literature, which was based on the methodology adopted by three different groups (Foltz et al. [1983]; Goodall & Basteyns [1995]; Kemp et al. [1995]), and designed with reference to FDA guidelines for industry (FDA Guidance for Industry [2012]). The method utilised protein precipitation, solvent extraction and derivatisation for the sample preparation and then sample analysis by capillary gas chromatography and detection by a mass spectrometer (GC-MS). The validation procedure investigated the calibration model with the best regression fit over the concentration range 0.1 - 100 ng/mL for CBD, THC and 11-OH-THC, as well as precision and accuracy of the method, stability, carry-over, and specificity.
(§4) Human plasma from healthy volunteers was used to prepare the standards and quality control (QC) samples, with analytes extracted using hexane/ethyl acetate (7:1 ratio), derivatised with N,O-Bis(trimethylsilyl)trifluoroacetamide. Analytic grade THC (Sigma, UK), CBD (Sigma, UK) and 11-OH-THC (Radian International and Cerillant, UK) were obtained, and three sets of CBD, THC and 11-OH-THC were used to support the study. Deuterated THC-d3 (Sigma, UK) was used as the internal standard. The GC-MS equipment was a Hewlett Packard 6890 Gas Chromatograph attached to a Hewlett Packard 5973 Mass Selective Detector. Data handling was carried out using an MS Chemstation System and the peak area ratio of the analytes to the internal standard was calculated in Excel (2000). The concentrations were calculated from the ratio data using least squares ln(y) on ln(x) regression performed in Excel (2000), and were then checked manually. Regression analysis was undertaken to find the regression model that best described the calibration data (for details, see ([Miller & Miller 1992])).
(§5) A 0.5 mL aliquot of test sample, QC or blank plasma was placed into a test tube. The blank plasma was spiked with 50 μL of the appropriate standard solution to produce the calibration standards. 50 μL of the internal standard was added to each test tube. The samples were then diluted by the addition of 500 μL of 0.1% (w/v) ascorbic acid and the protein precipitated by the addition of 1.0 mL of acetonitrile. The proteins were removed by centrifugation and the supernatant concentrated to 1 mL using nitrogen at 50 °C. The samples were then basified by the addition of 300 μL of 5M sodium hydroxide and the analytes extracted by the addition of 2.0 mL of 7:1 hexane:ethyl acetate. After mixing for 16 minutes the tubes were centrifuged and the top layer transferred into clean 3 dram vials. The solvent was removed using nitrogen at 70 °C and the dried extract resuspended in 100 μL of BSTFA and transferred to microvials, capped and placed at 70 °C for 30 minutes to derivatise the analytes. The microvials were then cooled and loaded onto the autosampler tray for analysis where 1 μL was injected onto the GC-MS system.

[2] = Phase I drug-drug interaction PK, Group 2: THC/CBD spray alone or with ketoconazole, plasma by GC-MS; conditions: for AUC(0-inf) / AUC(0-t) / Cmax / Kel / t½ / Tmax: plasma; for AUC(0-inf) / AUC(0-t) / Cmax / Kel / t½: mean (SD); for Tmax: median (range)
Method: as §1, §2, §3, §4, §5

[3] = Phase I drug-drug interaction PK, Group 3: THC/CBD spray alone or with omeprazole, plasma by GC-MS; conditions: for AUC(0-inf) / AUC(0-t) / Cmax / Kel / t½ / Tmax: n = 12, plasma; for AUC(0-inf) / AUC(0-t) / Cmax / Kel / t½: mean (SD); for Tmax: median (range); for Cmax and AUC % Co-efficient of Variation (CV%) range: inter-subject variability
Method: as §1, §2, §3, §4, §5

[4] = Rifampicin and THC/CBD spray vs THC/CBD spray alone, no-interaction range 0.80 to 1.25
[5] = THC/CBD spray 4 sprays and rifampicin 600 mg after repeated daily dosing
[6] = THC/CBD spray alone, single dose 4 sprays (10.8/10 mg), rifampicin group
[7] = THC/CBD spray co-administered with rifampicin vs alone
[8] = Ketoconazole and THC/CBD spray vs THC/CBD spray alone, no-interaction range 0.80 to 1.25
[9] = THC/CBD spray 4 sprays and ketoconazole 400 mg at end of 5-day dosing period, n = 11
[10] = THC/CBD spray alone, single dose 4 sprays (10.8/10 mg), ketoconazole group, n = 12
[11] = THC/CBD spray co-administered with ketoconazole vs alone
[12] = Omeprazole and THC/CBD spray vs THC/CBD spray alone, no-interaction range 0.80 to 1.25
[13] = THC/CBD spray 4 sprays and omeprazole 40 mg at end of 6-day dosing period
[14] = THC/CBD spray alone, single dose 4 sprays (10.8/10 mg), omeprazole group
[15] = THC/CBD spray co-administered with omeprazole vs alone

11-hydroxy-THC [11-OH-THC]
Geometric mean ratio of AUC(0-inf), point estimate [1, 4]: 0.131
Geometric mean ratio of AUC(0-t), point estimate [1, 4]: 0.099
Geometric mean ratio of Cmax, point estimate [1, 4]: 0.140
AUC(0-inf) [1, 5]: 2.78 (0.68)^c h*ng/mL
AUC(0-t) [1, 5]: 1.84 (0.79) h*ng/mL
Cmax [1, 5]: 0.45 (0.18) ng/mL
Kel [1, 5]: 0.189 (0.074)^c h^-1
t½ [1, 5]: 4.19 (1.62)^c h
Tmax [1, 5]: 1.75 (1.50-2.57) h
AUC(0-inf) [1, 6]: 21.59 (8.76) h*ng/mL
AUC(0-t) [1, 6]: 18.61 (7.81) h*ng/mL
Cmax [1, 6]: 3.38 (1.95) ng/mL
Kel [1, 6]: 0.083 (0.042) h^-1
t½ [1, 6]: 9.88 (3.89) h
Tmax [1, 6]: 1.38 (0.50-6.02) h
% change in mean t1/2 [1, 7]: -58%
% change in median Tmax [1, 7]: +27%
Change in mean Cmax ([1]; THC/CBD spray with rifampicin vs THC/CBD spray alone): -87%
Geometric mean ratio of AUC(0-inf), point estimate [2, 8]: 3.616
Geometric mean ratio of AUC(0-t), point estimate [2, 8]: 3.823
Geometric mean ratio of Cmax, point estimate [2, 8]: 3.074
AUC(0-inf) [2, 9]: 95.26 (48.93) h*ng/mL
AUC(0-t) [2, 9]: 84.34 (40.18) h*ng/mL
Cmax [2, 9]: 10.92 (3.83) ng/mL
Kel [2, 9]: 0.095 (0.016) h^-1
t½ [2, 9]: 7.48 (1.39) h
Tmax [2, 9]: 2.25 (1.50-4.13) h
AUC(0-inf) [2, 10]: 27.13 (13.34)^d h*ng/mL
AUC(0-t) [2, 10]: 21.78 (11.34) h*ng/mL
Cmax [2, 10]: 3.59 (1.67) ng/mL
Kel [2, 10]: 0.076 (0.014)^d h^-1
t½ [2, 10]: 9.51 (2.18)^d h
Tmax [2, 10]: 1.50 (1.00-6.00) h
% change in mean Tmax [2, 11]: +50%
% change in t1/2 [2, 11]: -21%
Change in mean Cmax ([2]; THC/CBD spray with ketoconazole vs THC/CBD spray alone): +204%
Substrate for the isoenzyme CYP3A4 (conclusion from ketoconazole interaction) ([2]; suggested by increased exposure with ketoconazole): substrates
AUC, times higher after CYP3A4 inhibition by ketoconazole ([2]; vs THC/CBD spray alone): 3.8 times
Cmax, times higher after CYP3A4 inhibition by ketoconazole ([2]; vs THC/CBD spray alone): 3.1 times
Geometric mean ratio of AUC(0-inf), point estimate [3, 12]: 0.869
Geometric mean ratio of AUC(0-t), point estimate [3, 12]: 0.869
Geometric mean ratio of Cmax, point estimate [3, 12]: 0.866
AUC(0-inf) [3, 13]: 19.80 (9.74) h*ng/mL
AUC(0-t) [3, 13]: 17.69 (9.05) h*ng/mL
Cmax [3, 13]: 2.84 (1.40) ng/mL
Kel [3, 13]: 0.095 (0.029) h^-1
t½ [3, 13]: 7.98 (2.82) h
Tmax [3, 13]: 1.52 (1.23-2.50) h
AUC(0-inf) [3, 14]: 24.17 (16.47) h*ng/mL
AUC(0-t) [3, 14]: 21.52 (14.76) h*ng/mL
Cmax [3, 14]: 3.48 (2.27) ng/mL
Kel [3, 14]: 0.114 (0.062) h^-1
t½ [3, 14]: 7.30 (2.87) h
Tmax [3, 14]: 2.00 (1.25-3.02) h
Plasma concentrations and PK parameters compared with THC/CBD spray alone ([3]; THC/CBD spray at end of 6-day omeprazole dosing): marginally lower
% change in Tmax [3, 15]: -24%
% change in t1/2 [3, 15]: +9%
Substrate for the isoenzyme CYP2C19 (conclusion from omeprazole interaction) ([3]; at the clinically relevant dose of THC/CBD spray investigated): not substrates
Cmax and AUC % Co-efficient of Variation (CV%) range ([3]; THC/CBD spray alone, omeprazole group): 48-69%
Cmax and AUC % Co-efficient of Variation (CV%) range ([3]; THC/CBD spray in combination with omeprazole): 40-67%
